Reference: ChEMBL document CHEMBL3351608, “2-Phenylindole and Arylsulphonamide: Novel Scaffolds Bactericidal against Mycobacterium tuberculosis” (ACS Med Chem Lett, 2014)
Values after ≈ are worked out from the molar mass of the structure shown.

Key:
[1] = system: Mycobacterium tuberculosis; assay: microbe, parasite or virus in culture; conditions: 120 h
[2] = system: Mycobacterium tuberculosis; assay type: functional; conditions: H37Rv, 120 h

Structure (SMILES) | MIC [1] | MIC [2]
CO[C@H]1/C=C/O[C@@]2(C)Oc3c(C)c(O)c4c(O)c(c(/C=N/N5CCN(C)CC5)c(O)c4c3C2=O)NC(=O)/C(C)=C\C=C\[C@H](C)[C@H](O)[C@@H](C)[C@@H](O)[C@@H](C)[C@H](OC(C)=O)[C@@H]1C [RIFAMPIN] | 12.5 µM (≈ 10.3 µg/mL) | 
Cc1cccc2c(CN3CCC(NS(C)(=O)=O)C3)c(-c3ccccc3)[nH]c12 (racemic) |  | 1.6 µM (≈ 0.614 µg/mL)
NNC(=O)c1ccncc1 [ISONIAZID] | 0.5 µM (≈ 0.0686 µg/mL) | 
O=S(=O)(NC1CCN(Cc2ccncc2)CC1)c1ccc(-n2cccn2)cc1 | 1.6 µM (≈ 0.636 µg/mL) | 3.3 µM (≈ 1.31 µg/mL)
CC1COC2(CCN(c3nc(=O)c4cc(C(F)(F)F)cc([N+](=O)[O-])c4s3)CC2)O1 (centres undefined) | 0.01 µM (≈ 0.00431 µg/mL) | 
COCCN(C1CCN(Cc2c(-c3ccccc3)[nH]c3c(C)cccc23)C1)S(C)(=O)=O (centres undefined) | 1.6 µM (≈ 0.707 µg/mL) | 0.8 µM (≈ 0.353 µg/mL)
Cc1cc(-n2cccn2)ccc1S(=O)(=O)NC1CCN(Cc2ccncc2)CC1 |  | 0.8 µM (≈ 0.329 µg/mL)
